Values after ≈ are worked out from the molar mass of the structure shown. Read-outs that look alike come from different tables or passages of the source.
Tests used:
A. fumigatus = test: Alamar blue metabolic activity assay; assay type: cell-based, Aspergillus fumigatus; details: ΔmpkA mutant, BRI 20 μM, 48 hours
C. albicans [1] = test: MIC for yeasts, CLSI M27-A3; assay type: cell-based, Candida albicans
Cryptococcus neoformans = test: In vitro susceptibility (MIC), macrobroth dilution; assay type: cell-based; details: Cryptococcus neoformans, C. neoformans CN9759, drug alone
Lomentospora prolificans = test: In vitro susceptibility (MIC), macrobroth dilution; assay type: cell-based
Mucorales Mucor species = test: In vitro susceptibility (MIC), macrobroth dilution; assay type: cell-based; details: Mucor
[2] = system: Mucorales Unspeciated zygomycete; test: In vitro susceptibility (MIC), macrobroth dilution; assay type: cell-based; details: Mucorales Unspeciated zygomycete 07-140
Candida albicans = test: In vitro susceptibility (MIC), macrobroth dilution; assay type: cell-based; details: Candida albicans, C. albicans 5, drug alone
Candida auris = test: In vitro susceptibility (MIC), macrobroth dilution; assay type: cell-based; details: Candidozyma auris, Candida auris 20-253
Candida krusei = test: In vitro susceptibility (MIC), macrobroth dilution; assay type: cell-based; details: Pichia kudriavzevii, Candida krusei 03-287 (fluconazole-resistant)
Candida lusitaniae = test: In vitro susceptibility (MIC), macrobroth dilution; assay type: cell-based; details: Clavispora lusitaniae, Candida lusitaniae 22-16
Torulopsis glabrata = test: In vitro susceptibility (MIC), macrobroth dilution; assay type: cell-based; details: Nakaseomyces glabratus, Torulopsis glabrata 22-21
Acremonium species = test: In vitro susceptibility (MIC), macrobroth dilution; assay type: cell-based; details: Acremonium species 18-51
Exserohilum species = test: In vitro susceptibility (MIC), macrobroth dilution; assay type: cell-based; details: Exserohilum species 19-48
Aspergillus niger = test: In vitro susceptibility (MIC), macrobroth dilution; assay type: cell-based; details: Aspergillus niger 22-4
Aspergillus lentulus = test: In vitro susceptibility (MIC), macrobroth dilution; assay type: cell-based; details: Aspergillus lentulus 14-39
Aspergillus terreus = test: In vitro susceptibility (MIC), macrobroth dilution; assay type: cell-based; details: Aspergillus terreus 12-70
Aspergillus fumigatus = test: In vitro susceptibility (MIC), macrobroth dilution; assay type: cell-based; details: for MIC50 / MIC: Aspergillus fumigatus
[3] = system: critical fungal pathogens; test: Checkerboard drug interaction testing (FICi), BRI with conventional antifungals; assay type: cell-based; details: organisms tested, with the exception of Aspergillus
C. albicans [4] = test: BRI+CAS against yeasts, colony forming units; details: plating after 48 hours
Method: (§1) Combination of Brilacidin and caspofungin against yeasts: For measuring the effect of the combination BRI+CAS against yeast fungal pathogens, two methods were used: (i) metabolic activity by XTT-assay and (ii) colony forming units (CFUs). For the first method, C. neoformans, C. albicans, and C. auris 10^4 cells were inoculated in RPMI-1640 supplemented with CAS 0 to 32 μg/ml (for C. neoformans) and 0 to 1 μg/ml (for Candida spp.) or the same concentrations of CAS combined with BRI 0.625 μM (for C. neoformans), BRI 20 μM (for C. albicans), and BRI 10 μM (for C. auris). […] XTT-assays were also used for C. albicans caspofungin resistant strains but with CAS 0.5 μg/ml combined with BRI 5, 10 or 20 μM. The same experimental design was used for the CFUs determination, except that after 48 hours the cells present in the wells were plated on YPD (yeast extract 10g, peptone 20g, dextrose 20g, agar 20 g, water 1000 mL) and the plates were incubated at 30° C. for 24-48 hours for determining the survival percentage.

C. auris = test: BRI+CAS against yeasts, colony forming units; details: plating after 48 hours
Method: as §1

[5] = system: A. fumigatus conidia infecting A549 pulmonary cells; test: Killing assay in infected A549 cells; assay type: cell-based, Aspergillus fumigatus; details: monotherapy
Method: Killing assay: The type II pneumocyte cell line A549 was cultured using DMEM (ThermoFischer Scientific, Paisley. […] After 24 hours of incubation in 5% CO2 the culture media was removed, and 2 ml of sterile water was added to the wells. A P1000 tip was then used to scrape away the cell monolayer and the cell suspension was collected. This suspension was then diluted 1:1000 and 100 μl was plated on Sabouraud Dextrose Agar Media before the plates were incubated a 37° C. overnight. The numbers of CFUs were determined after 24 hours of growth. A volume of 50 μl of the inoculum adjusted to 103/ml was also plated on SAB agar to correct CFU counts. The CFU percentage for each sample was calculated and the results were plotted using Graphpad Prism (GraphPad Software, Inc., La Jolla, CA, USA).

C. neoformans = test: BRI+CAS against yeasts, XTT metabolic activity; details: CAS alone, 48 hours
C. albicans [6] = test: BRI+CAS against yeasts, XTT metabolic activity; details: absence of BRI
[7] = lowest concentration causing 50% decrease in growth vs untreated control, read-out: MIC50
[8] = lowest concentration without growth, read-out: MIC100
[9] = read-out: 50% Inhibition BRI (MIC50)
[10] = read-out: 100% Inhibition BRI (MIC100)

N=C(N)NCCCCC(=O)Nc1cc(C(F)(F)F)cc(NC(=O)c2cc(C(=O)Nc3cc(C(F)(F)F)cc(NC(=O)CCCCNC(=N)N)c3OC3CCNC3)ncn2)c1OC1CCNC1 (stereo not drawn) [BRI, brilacidin]
metabolic activity (Alamar blue) in presence vs absence of BRI (A. fumigatus): significantly decreased metabolic activity
MIC (C. albicans [1]; Candida albicans SC5314, read-out: MIC BRI): 80 µM
MIC (C. albicans [1]; Candida albicans, read-out: MIC BRI, Candida albicans DPL1006 CAS^R (FKS1 F641L)): 20 µM
MIC (C. albicans [1]; Candida albicans, read-out: MIC BRI, Candida albicans DPL1009 CAS^R (FKS1 S645Y)): 20 µM
MIC (C. albicans [1]; Candida albicans, read-out: MIC BRI, Candida albicans DPL1011 CAS^R (FKS1 S645F + R1361R/H)): 40 µM
MIC (C. albicans [1]; Candida albicans, C. albicans CAS-resistant isolates, read-out: BRI MICs): 20 to 80 µM
MIC (C. albicans [1]; Candida albicans, C. albicans, read-out: MIC BRI): 80 µM
MIC50 (Cryptococcus neoformans; [7]): 1 µg/mL (≈ 1.07 µM)
MIC (Cryptococcus neoformans; [8]): 8 µg/mL (≈ 8.54 µM)
MIC50 (Lomentospora prolificans; [9]): 4 µg/mL (≈ 4.27 µM)
MIC (Lomentospora prolificans; [10]): 8 µg/mL (≈ 8.54 µM)
MIC50 (Mucorales Mucor species; Mucor sp. 13-127, drug alone, lowest concentration causing 50% decrease in growth vs untreated control, read-out: MIC50): 4 µg/mL (≈ 4.27 µM)
MIC (Mucorales Mucor species; Mucor sp. 13-127, drug alone, lowest concentration without growth, read-out: MIC100): 64 µg/mL (≈ 68.3 µM)
MIC (Mucorales Mucor species; Mucorales Mucor species, read-out: 100% Inhibition BRI (MIC100)): 32 µg/mL (≈ 34.2 µM)
MIC50 [2, 9]: 2 µg/mL (≈ 2.13 µM)
MIC [2, 10]: 16 µg/mL (≈ 17.1 µM)
MIC50 (Candida albicans; [7]): 4 µg/mL (≈ 4.27 µM)
MIC (Candida albicans; [8]): > 64 µg/mL
MIC50 (Candida auris; [9]): > 64 µg/mL
MIC (Candida auris; [10]): > 64 µg/mL
MIC50 (Candida krusei; [9]): 8 µg/mL (≈ 8.54 µM)
MIC (Candida krusei; [10]): 16 µg/mL (≈ 17.1 µM)
MIC50 (Candida lusitaniae; [9]): 8 µg/mL (≈ 8.54 µM)
MIC (Candida lusitaniae; [10]): 8 µg/mL (≈ 8.54 µM)
MIC50 (Torulopsis glabrata; [9]): 64 µg/mL (≈ 68.3 µM)
MIC (Torulopsis glabrata; [10]): > 64 µg/mL
MIC50 (Acremonium species; [9]): 4 µg/mL (≈ 4.27 µM)
MIC (Acremonium species; [10]): > 64 µg/mL
MIC50 (Exserohilum species; [9]): 1 µg/mL (≈ 1.07 µM)
MIC (Exserohilum species; [10]): 16 µg/mL (≈ 17.1 µM)
MIC50 (Aspergillus niger; [9]): 8 µg/mL (≈ 8.54 µM)
MIC (Aspergillus niger; [10]): 16 µg/mL (≈ 17.1 µM)
MIC50 (Aspergillus lentulus; [9]): 32 µg/mL (≈ 34.2 µM)
MIC (Aspergillus lentulus; [10]): > 64 µg/mL
MIC50 (Aspergillus terreus; [9]): > 64 µg/mL
MIC (Aspergillus terreus; [10]): > 64 µg/mL
MIC100 (Aspergillus fumigatus; A. fumigatus 21-23, drug alone, lowest concentration without growth): >64 µg/mL
MIC50 (Aspergillus fumigatus; A. fumigatus 10AF, drug alone, lowest concentration causing 50% decrease in growth vs untreated control, read-out: MIC50): 64 µg/mL (≈ 68.3 µM)
MIC50 (Aspergillus fumigatus; A. fumigatus 21-23, drug alone, lowest concentration causing 50% decrease in growth vs untreated control, read-out: MIC50): 64 µg/mL (≈ 68.3 µM)
MIC (Aspergillus fumigatus; A. fumigatus 10AF, drug alone, lowest concentration without growth, read-out: MIC100): > 64 µg/mL
MIC50 (Aspergillus fumigatus; [9]): > 64 µg/mL
MIC (Aspergillus fumigatus; [10]): > 64 µg/mL
in vitro activity of BRI alone [3]: favorable in vitro activity
Mechanism (C. albicans [4]; Candida albicans DPL1006 CAS^R): Fungicidal
Mechanism (C. albicans [4]; Candida albicans DPL1007 CAS^R): Fungicidal
Mechanism (C. albicans [4]; Candida albicans DPL1009 CAS^R): Fungicidal
Mechanism (C. albicans [4]; Candida albicans DPL1010 CAS^R): Fungicidal
Mechanism (C. albicans [4]; Candida albicans DPL1011 CAS^R): Fungicidal
Mechanism (C. albicans [4]; Candida albicans SC5314): Fungicidal
Mechanism (C. auris; Candida auris 467/2015): Fungicidal
Mechanism (C. auris; Candida auris 468/2015): Fungicidal
Mechanism (C. auris; Candida auris 469/2015): Fungicidal
Mechanism (C. auris; Candida auris 470/2015): Fungicidal
Mechanism (C. auris; Candida auris 471/2015): Fungicidal

CC[C@H](C)C[C@H](C)CCCCCCCCC(=O)N[C@H]1C[C@@H](O)[C@@H](NCCN)NC(=O)[C@@H]2[C@@H](O)CCN2C(=O)[C@H]([C@H](O)CCN)NC(=O)[C@H]([C@H](O)[C@@H](O)c2ccc(O)cc2)NC(=O)[C@@H]2C[C@@H](O)CN2C(=O)[C@H]([C@@H](C)O)NC1=O [CAS, caspofungin]
MIC (C. albicans [1]; Candida albicans SC5314, read-out: MIC CAS): 0.25 µg/mL
MIC (C. albicans [1]; Candida albicans, read-out: MIC CAS, Candida albicans DPL1006 CAS^R (FKS1 F641L)): 2 µg/mL
MIC (C. albicans [1]; Candida albicans, read-out: MIC CAS, Candida albicans DPL1007 CAS^R (FKS1 F641S)): 4 µg/mL
MIC (C. albicans [1]; Candida albicans, read-out: MIC CAS, Candida albicans DPL1009 CAS^R (FKS1 S645Y)): 4 µg/mL
MIC (C. albicans [1]; Candida albicans, read-out: MIC CAS, Candida albicans DPL1010 CAS^R (FKS1 S645F)): 2 µg/mL
MIC (C. albicans [1]; Candida albicans, read-out: MIC CAS, Candida albicans DPL1011 CAS^R (FKS1 S645F + R1361R/H)): 4 µg/mL
A. fumigatus killing [5]: 25%
CAS concentration that completely inhibits metabolic activity (XTT) (C. neoformans): 32 µg/mL
CAS concentration for complete inhibition of metabolic activity (XTT) and survival (CFUs) (C. albicans [6]): ~0.125 µg/mL

Reference: patent US20240139188A1, “Arylamide Compounds For Treatment And Prevention Of Fungal Infections” (priority 2022, published 2024)
